Assay [1] has as its target T1, hNK2 receptor (Homo sapiens, UniProt P21452).
T1 construct: host or cells: CHO cells
T1 sequence (P21452 1-398): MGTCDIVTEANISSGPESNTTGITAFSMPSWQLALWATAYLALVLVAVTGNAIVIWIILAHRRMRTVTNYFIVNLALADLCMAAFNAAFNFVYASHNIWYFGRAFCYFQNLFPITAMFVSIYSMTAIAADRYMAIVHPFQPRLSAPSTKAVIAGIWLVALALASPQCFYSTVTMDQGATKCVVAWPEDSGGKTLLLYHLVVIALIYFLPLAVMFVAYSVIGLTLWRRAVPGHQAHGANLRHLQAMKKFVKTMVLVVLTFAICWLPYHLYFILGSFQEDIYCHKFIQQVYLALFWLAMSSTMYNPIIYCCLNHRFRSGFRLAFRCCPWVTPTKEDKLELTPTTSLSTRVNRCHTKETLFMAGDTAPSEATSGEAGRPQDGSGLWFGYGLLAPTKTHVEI
The assay is described as follows: Antagonistic activity determined by intracellular calcium concentration (FLIPR) using Neurokinin A and hNK2 receptor-expressing CHO cell. Type of assay: cell-based. Conditions: increase in intracellular calcium due to Neurokinin A, hNK2 receptor-expressing CHO cells. How it is done: hNK2 receptor-expressing CHO cells were seeded on a 96 well plate at 3×10^4 cell/well and cultured for 24 hrs. Then the medium was aspirated and 20 mM HEPES (pH 7.4)—HBSS buffer (50 μL) was added. Thereto was added prepared 1× Reagent buffer (50 μL, FLIPR Calcium Assay Kit: Molecular Devices Corporation, Japan) and the mixture was reacted at 37° C. for 1 hr. A test compound diluted with 20 mM HEPES (pH 7.4)—HBSS buffer (50 μL, containing 0.4% dimethyl sulfoxide) was added to examine antagonistic activity of the test compound. Thereafter, 20 nM Neurokinin A solution (50 μL) was added, and change in the intracellular calcium concentration were measured by FLIPR (Molecular Devices Corporation, Japan).
On the technique in general: Calcium assays in cells follow changes in intracellular calcium, usually with a dye or a luminescent sensor.

Assay [2] addresses T1, hNK2 receptor. The assay is described as follows: Radio-ligand ([125I]-NKA) receptor binding inhibitory activity using membrane fraction of hNK2 receptor-expressing CHO cell. Conditions: membrane fraction of hNK2 receptor-expressing CHO cells, 25° C., 30 min. In a few lines:
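Inhibition of [125I]-NKA binding ([…] solution added) measured after 30 min at 25 °C using hNK2-CHO membrane fraction (20 μg/mL suspension) in pH 7.4 Tris buffer containing MnCl2, BSA and protease inhibitors. Filter-bound counts read; activity calculated as fraction of specific binding, non-specific defined with unlabeled NKA.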

As for `O=C(N[C@@H]1CCCC[C@@H]1C(=O)N1CC[C@@H]2[C@H](c3ccccc3)Nc3ccccc3[C@@H]21)c1ccccc1` [Compound of Example 1], the figures for the “Assay of Antagonistic activity Inhibitory rate (%)” value in assay [1] (test compound 1 μM) and in assay [1] (test compound 10 μM) were 45% and 97%, respectively.
By IC50 is commonly meant the midpoint of a concentration-inhibition curve. Lower therefore signals inhibition by little substance. In assay [2], `Cc1cc(C(=O)N[C@@H]2CCCC[C@@H]2C(=O)N2CC[C@@H]3[C@H](c4ncc[nH]4)Nc4ccccc4[C@@H]32)ccc1C#N` [Example 309, 4-Cyano-N-((1R,2S)-2-{[(3aR,4R,9bR)-4-(1H-imidazol-2-yl)-2,3,3a,4,5,9b-hexahydro-1H-pyrrolo[3,2-c]quinolin-1-yl]carbonyl}cyclohexyl)-3-methylbenzamide] displayed an IC50 of less than 1 nM.
For `O=C(N[C@@H]1CCCC[C@@H]1C(=O)N1CC[C@@H]2[C@H](c3ncc[nH]3)Nc3ccccc3[C@@H]21)c1ccc2[nH]nnc2c1` [Example 310, N-((1R,2S)-2-{[(3aR,4R,9bR)-4-(1H-Imidazol-2-yl)-2,3,3a,4,5,9b-hexahydro-1H-pyrrolo[3,2-c]quinolin-1-yl]carbonyl}cyclohexyl)-1H-1,2,3-benzotriazole-5-carboxamide], the 50% inhibitory concentration (IC50) in assay [2] is less than 1 nM.
Same read-out and setting: to `O=C(N[C@@H]1CCCC[C@@H]1C(=O)N1CC[C@H]2[C@@H](c3ncc[nH]3)Nc3ccccc3[C@H]21)c1ccccc1` [Example 321, N-((1R,2S)-2-{[(3aS,4S,9bS)-4-(1H-Imidazol-2-yl)-2,3,3a,4,5,9b-hexahydro-1H-pyrrolo[3,2-c]quinolin-1-yl]carbonyl}cyclohexyl)benzamide] belongs less than 10 nM.
In assay [2], `N#Cc1ccc(C(=O)N[C@@H]2CCCC[C@@H]2C(=O)N2CC[C@@H]3[C@H](c4ccc[nH]4)Nc4ccccc4[C@@H]32)cc1` [Example 322, 4-Cyano-N-((1R,2S)-2-{[(3aR,4R,9bR)-4-(1H-pyrrol-2-yl)-2,3,3a,4,5,9b-hexahydro-1H-pyrrolo[3,2-c]quinolin-1-yl]carbonyl}cyclohexyl)benzamide] returned a half-maximal inhibitory concentration (IC50) of less than 1 nM.
The same measure, in the same setting: the result for `NC(=O)c1ccc(C(=O)N[C@@H]2CCCC[C@@H]2C(=O)N2CC[C@@H]3[C@H](c4ccc[nH]4)Nc4ccccc4[C@@H]32)cc1` [Example 323, N-((1R,2S)-2-{[(3aR,4R,9bR)-4-(1H-Pyrrol-2-yl)-2,3,3a,4,5,9b-hexahydro-1H-pyrrolo[3,2-c]quinolin-1-yl]carbonyl}cyclohexyl)terephthalamide] reads less than 1 nM; that for `O=C(Nc1ccccc1)N[C@@H]1CCCC[C@@H]1C(=O)N1CCc2c(-c3ccccc3)nc3ccccc3c21` [Example 326, N-Phenyl-N′-{(1R,2S)-2-[(4-phenyl-2,3-dihydro-1H-pyrrolo[3,2-c]quinolin-1-yl)carbonyl]cyclohexyl}urea], less than 10 nM.

The values are drawn from US7943770B2, “Fused quinoline derivative and use thereof” (Takeda Pharmaceutical Company Limited, priority 2004, dated 2011).
